What was measured:
AhR = biological target: T1, AhR (Homo sapiens, UniProt P35869); test: AhR activation, pDRE3 luciferase transient transfection in LNCaP cells; assay type: cell-based
T1 construct: LNCaP cells were transfected with pDRE3, treated with various compounds and luciferase activity was determined; endogenous in cells; host or cells: LNCaP
T1 sequence (P35869 11-848): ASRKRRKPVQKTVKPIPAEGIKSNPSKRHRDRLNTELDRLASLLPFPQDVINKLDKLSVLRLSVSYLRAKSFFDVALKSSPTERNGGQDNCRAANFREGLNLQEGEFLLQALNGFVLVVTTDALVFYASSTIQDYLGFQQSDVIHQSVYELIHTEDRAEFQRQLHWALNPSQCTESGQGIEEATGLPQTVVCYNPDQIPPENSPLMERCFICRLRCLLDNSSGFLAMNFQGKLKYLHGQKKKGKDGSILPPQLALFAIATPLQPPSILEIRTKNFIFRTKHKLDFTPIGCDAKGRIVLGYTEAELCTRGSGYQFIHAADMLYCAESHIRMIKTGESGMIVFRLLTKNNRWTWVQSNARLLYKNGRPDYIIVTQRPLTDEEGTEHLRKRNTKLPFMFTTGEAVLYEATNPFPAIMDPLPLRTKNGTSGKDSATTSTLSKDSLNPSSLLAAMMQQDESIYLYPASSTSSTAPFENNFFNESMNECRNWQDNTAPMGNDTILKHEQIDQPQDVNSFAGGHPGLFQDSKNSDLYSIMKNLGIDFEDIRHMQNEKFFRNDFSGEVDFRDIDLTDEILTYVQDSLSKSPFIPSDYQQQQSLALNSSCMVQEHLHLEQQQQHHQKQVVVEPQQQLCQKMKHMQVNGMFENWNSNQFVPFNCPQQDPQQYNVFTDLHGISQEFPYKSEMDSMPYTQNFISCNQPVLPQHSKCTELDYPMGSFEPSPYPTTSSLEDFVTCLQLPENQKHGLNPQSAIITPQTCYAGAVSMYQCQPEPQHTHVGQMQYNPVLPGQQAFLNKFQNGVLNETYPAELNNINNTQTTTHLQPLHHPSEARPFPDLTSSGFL
Description: (§1) After 24 h, cells were transfected using Lipofectamine and Plus reagents (Invitrogen) according to manufacturer's instructions. LNCaP and ZR-75 cells were transfected with 500 ng/well of either reporter plasmid, and 250 ng/well of pcDNA3.1-β-gal (Invitrogen) as the internal control. In addition, ZR-75 cells were transfected with 500 ng hAR. Twenty-four hours after treatment, cells were harvested by scraping with 200 μL/well of reporter lysis buffer. Lysates were centrifuged at 40,000 g and luciferase and β-galactosidase activity was assayed with 30 μL of the supernatant extract per sample using a Lumicount luminometer (PerkinElmer, Boston, Mass.). Luciferase activity was normalized to β-galactosidase activity for each transfection well.
LNCaP cells were transfected with pDRE3, treated with various compounds and luciferase activity was determined as described in the above Examples.

[1] = tested on: androgen-responsive probasin gene promoter (pPB); assay type: cell-based, human; settings: ZR-75 cells, pPB alone
Description: as §1, with “ZR-75 human breast cancer and LNCaP human prostate cancer cells were obtained from American Type Culture Collection (Manassas, Va.) and were maintained in RPMI 1640 medium supplemented with 10% FBS, 1% antibiotic/antimycotic solution, 1.5 g/L sodium bicarbonate, and 10 mM HEPES, final pH of 7.4. Cells were seeded at 2.75×10^5 per 22-mm well in DME-F12 without phenol red, supplemented with 2.5% charcoal-stripped fetal bovine serum (FBS). After” for “After”

[2] = tested on: ethoxyresorufin O-deethylase (EROD) activity in PC3 cells; test: Induction of EROD activity in PC3 cells; assay type: cell-based; settings: 24-96 hr
Description: (§2) An androgen responsive prostate cancer cell line 22Rv1 and an androgen nonresponsive prostate cancer cell line PC3 were treated with TCDD and ethoxyresorufin O-deethylase (EROD) activity was measured.

hAR = biological target: T2, hAR (Homo sapiens, UniProt P10275); test: Hormone-induced transactivation in ZR-75 cells cotransfected with pPB and hAR; assay type: cell-based; settings: cotreated with hormone plus TCDD
T2 construct: expressed in transfected cells; host or cells: ZR-75
T2 sequence (P10275 1-920): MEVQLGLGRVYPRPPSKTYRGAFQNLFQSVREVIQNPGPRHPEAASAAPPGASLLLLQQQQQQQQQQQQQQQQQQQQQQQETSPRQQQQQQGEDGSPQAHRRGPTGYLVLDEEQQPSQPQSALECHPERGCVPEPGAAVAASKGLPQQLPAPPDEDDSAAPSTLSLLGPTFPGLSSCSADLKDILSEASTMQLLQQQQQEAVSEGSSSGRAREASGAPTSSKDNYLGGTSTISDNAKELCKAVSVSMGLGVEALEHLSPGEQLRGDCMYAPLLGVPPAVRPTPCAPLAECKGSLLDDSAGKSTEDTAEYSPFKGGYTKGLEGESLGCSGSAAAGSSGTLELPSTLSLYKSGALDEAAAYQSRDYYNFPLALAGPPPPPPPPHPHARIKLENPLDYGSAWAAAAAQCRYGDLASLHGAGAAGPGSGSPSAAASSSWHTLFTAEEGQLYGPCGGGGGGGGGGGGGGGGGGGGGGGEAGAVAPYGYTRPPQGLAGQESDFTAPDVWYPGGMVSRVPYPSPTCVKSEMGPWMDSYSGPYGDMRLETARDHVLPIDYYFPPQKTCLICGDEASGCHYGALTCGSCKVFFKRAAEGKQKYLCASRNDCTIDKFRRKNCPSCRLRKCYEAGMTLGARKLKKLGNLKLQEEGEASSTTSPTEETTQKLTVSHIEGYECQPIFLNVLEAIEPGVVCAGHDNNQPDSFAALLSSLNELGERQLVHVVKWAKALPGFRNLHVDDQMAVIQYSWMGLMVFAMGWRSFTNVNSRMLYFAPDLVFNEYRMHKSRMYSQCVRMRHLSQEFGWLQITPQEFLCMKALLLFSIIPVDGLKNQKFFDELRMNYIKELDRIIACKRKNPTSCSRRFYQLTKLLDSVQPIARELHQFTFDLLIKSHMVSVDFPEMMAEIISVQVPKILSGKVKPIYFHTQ
Description: as §1

[3] = tested on: ethoxyresorufin O-deethylase (EROD) activity in 22Rv1 cells; test: Induction of EROD activity in 22Rv1 cells; assay type: cell-based; settings: 24-hr treatment
Description: as §2

| SMILES | luciferase activity induction (AhR; pDRE3, 2 μM) | reporter gene activity [1] | EROD activity induction ([2]; 1 nM) | EROD activity induction ([2]; 10 nM, maximal after 96 hr) | luciferase activity induction compared to solvent control (DMSO) (AhR; pDRE3, 10 nM) | effect on DHT-induced activity (hAR) | effect on E2-induced activity (hAR) | EROD activity induction [3] |
| --- | --- | --- | --- | --- | --- | --- | --- | --- |
| Cc1cc(Cl)cc2c1oc1cc(Cl)cc(Cl)c12 [6-MCDF, 6-methyl-1,3,8-trichlorodibenzofuran] | > 7 fold | did not activate | – | – | – | – | – | – |
| Clc1cc2c(cc1Cl)Oc1cc(Cl)c(Cl)cc1O2 [TCDD, 2,3,7,8-tetrachloro-p-dioxin] | – | did not activate | did not induce activity | induced a response | > 9 fold | not | inhibited | induced EROD activity |

From US20050143450A1, “Alkyl PCDF as a treatment for prostate cancer” (priority 2002, published 2005)
